Experimental data published in PubChem BioAssay (NCI).
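Protocol summary: plate cells (96-well), add compound at 5 concentrations, incubate 48 h, interpolate endpoints linearly. At the GI50, growth is halved. TGI denotes the concentration required for complete inhibition of growth.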

Key:
Test in all cases: NCI tumour cell line growth inhibition, 48 h
786-0 renal = test system: 786-0 renal
A498 renal = test system: A498 renal
A549 NSCLC = test system: A549 NSCLC
ACHN renal = test system: ACHN renal
BT-549 breast = test system: BT-549 breast
CAKI-1 renal = test system: CAKI-1 renal
CCRF-CEM leukemia = test system: CCRF-CEM leukemia
COLO 205 colon = test system: COLO 205 colon
DU-145 prostate = test system: DU-145 prostate
EKVX NSCLC = test system: EKVX NSCLC
HCC-2998 colon = test system: HCC-2998 colon
HCT-116 colon = test system: HCT-116 colon
HCT-15 colon = test system: HCT-15 colon
HL-60(TB) leukemia = test system: HL-60(TB) leukemia
HOP-62 NSCLC = test system: HOP-62 NSCLC
HOP-92 NSCLC = test system: HOP-92 NSCLC
HS 578T breast = test system: HS 578T breast
HT29 colon = test system: HT29 colon
IGROV1 ovarian = test system: IGROV1 ovarian
K-562 leukemia = test system: K-562 leukemia
KM12 colon = test system: KM12 colon
LOX IMVI melanoma = test system: LOX IMVI melanoma
M14 melanoma = test system: M14 melanoma
MALME-3M melanoma = test system: MALME-3M melanoma
MCF7 breast = test system: MCF7 breast
MDA-MB-231 breast = test system: MDA-MB-231 breast
MDA-MB-435 = test system: MDA-MB-435
MOLT-4 leukemia = test system: MOLT-4 leukemia
NCI-H226 lung = test system: NCI-H226 lung
NCI-H23 lung = test system: NCI-H23 lung
NCI-H460 lung = test system: NCI-H460 lung
NCI-H522 lung = test system: NCI-H522 lung
NCI/ADR-RES ovarian = test system: NCI/ADR-RES ovarian
OVCAR-3 ovarian = test system: OVCAR-3 ovarian
OVCAR-4 ovarian = test system: OVCAR-4 ovarian
OVCAR-5 ovarian = test system: OVCAR-5 ovarian
OVCAR-8 ovarian = test system: OVCAR-8 ovarian
PC-3 prostate = test system: PC-3 prostate
RPMI-8226 leukemia = test system: RPMI-8226 leukemia
RXF 393 renal = test system: RXF 393 renal
SF-268 CNS = test system: SF-268 CNS
SF-295 CNS = test system: SF-295 CNS
SF-539 CNS = test system: SF-539 CNS
SK-MEL-2 melanoma = test system: SK-MEL-2 melanoma
SK-MEL-28 melanoma = test system: SK-MEL-28 melanoma
SK-MEL-5 melanoma = test system: SK-MEL-5 melanoma
SK-OV-3 ovarian = test system: SK-OV-3 ovarian
SN12C renal = test system: SN12C renal
SNB-19 CNS = test system: SNB-19 CNS
SNB-75 CNS = test system: SNB-75 CNS
SR leukemia = test system: SR leukemia
SW-620 colon = test system: SW-620 colon
T-47D breast = test system: T-47D breast
TK-10 renal = test system: TK-10 renal
U251 CNS = test system: U251 CNS
UACC-257 melanoma = test system: UACC-257 melanoma
UACC-62 melanoma = test system: UACC-62 melanoma
UO-31 renal = test system: UO-31 renal

SMILES: O=S(=O)(Nc1ccc(Cl)c(F)c1)c1ccc(-c2cnc(C3CC3)o2)cc1
- GI50 (786-0 renal): 0.535 µM
- TGI (786-0 renal): 16.2 µM
- GI50 (A498 renal): 0.232 µM
- TGI (A498 renal): 0.922 µM
- GI50 (A549 NSCLC): 0.825 µM
- TGI (A549 NSCLC): 14.7 µM
- GI50 (ACHN renal): 0.622 µM
- TGI (ACHN renal): 15.8 µM
- GI50 (BT-549 breast): 0.515 µM
- TGI (BT-549 breast): 15.4 µM
- GI50 (CAKI-1 renal): 0.36 µM
- TGI (CAKI-1 renal): 15.2 µM
- GI50 (CCRF-CEM leukemia): 0.382 µM
- TGI (CCRF-CEM leukemia): 21.5 µM
- GI50 (COLO 205 colon): 0.651 µM
- TGI (COLO 205 colon): 9.7 µM
- GI50 (DU-145 prostate): 1.65 µM
- TGI (DU-145 prostate): 14.7 µM
- GI50 (EKVX NSCLC): 1.05 µM
- TGI (EKVX NSCLC): 14.8 µM
- GI50 (HCC-2998 colon): 1.72 µM
- TGI (HCC-2998 colon): 12.3 µM
- GI50 (HCT-116 colon): 0.382 µM
- TGI (HCT-116 colon): 12.7 µM
- GI50 (HCT-15 colon): 0.332 µM
- TGI (HCT-15 colon): 12.6 µM
- GI50 (HL-60(TB) leukemia): 0.313 µM
- TGI (HL-60(TB) leukemia): 3.8 µM
- GI50 (HOP-62 NSCLC): 0.579 µM
- TGI (HOP-62 NSCLC): 17.6 µM
- GI50 (HOP-92 NSCLC): 0.734 µM
- TGI (HOP-92 NSCLC): 6.61 µM
- GI50 (HS 578T breast): 0.355 µM
- TGI (HS 578T breast): 8.56 µM
- GI50 (HT29 colon): 0.339 µM
- TGI (HT29 colon): 5.27 µM
- GI50 (IGROV1 ovarian): 0.556 µM
- TGI (IGROV1 ovarian): 15.2 µM
- GI50 (K-562 leukemia): 0.21 µM
- TGI (K-562 leukemia): > 65.3 µM
- GI50 (KM12 colon): 0.379 µM
- TGI (KM12 colon): 13.3 µM
- GI50 (LOX IMVI melanoma): 0.503 µM
- TGI (LOX IMVI melanoma): 19.1 µM
- GI50 (M14 melanoma): 0.328 µM
- TGI (M14 melanoma): 12.9 µM
- GI50 (MALME-3M melanoma): 0.821 µM
- TGI (MALME-3M melanoma): 23.4 µM
- GI50 (MCF7 breast): 0.284 µM
- TGI (MCF7 breast): 13.4 µM
- GI50 (MDA-MB-231 breast): 1.06 µM
- TGI (MDA-MB-231 breast): 11.5 µM
- GI50 (MDA-MB-435): 0.0853 µM
- TGI (MDA-MB-435): 0.484 µM
- GI50 (MOLT-4 leukemia): 0.614 µM
- TGI (MOLT-4 leukemia): 25 µM
- GI50 (NCI-H226 lung): 1.25 µM
- TGI (NCI-H226 lung): 16.5 µM
- GI50 (NCI-H23 lung): 1.19 µM
- TGI (NCI-H23 lung): 13.5 µM
- GI50 (NCI-H460 lung): 0.413 µM
- TGI (NCI-H460 lung): 11.6 µM
- GI50 (NCI-H522 lung): 0.192 µM
- TGI (NCI-H522 lung): 4.42 µM
- GI50 (NCI/ADR-RES ovarian): 0.369 µM
- TGI (NCI/ADR-RES ovarian): 7.56 µM
- GI50 (OVCAR-3 ovarian): 0.357 µM
- TGI (OVCAR-3 ovarian): 3.48 µM
- GI50 (OVCAR-4 ovarian): 1.82 µM
- TGI (OVCAR-4 ovarian): 16.2 µM
- GI50 (OVCAR-5 ovarian): 1.61 µM
- TGI (OVCAR-5 ovarian): 14.5 µM
- GI50 (OVCAR-8 ovarian): 1.09 µM
- TGI (OVCAR-8 ovarian): 19.8 µM
- GI50 (PC-3 prostate): 0.516 µM
- TGI (PC-3 prostate): 13.9 µM
- GI50 (RPMI-8226 leukemia): 0.531 µM
- TGI (RPMI-8226 leukemia): > 53.4 µM
- GI50 (RXF 393 renal): 0.282 µM
- TGI (RXF 393 renal): 2.75 µM
- GI50 (SF-268 CNS): 1.03 µM
- TGI (SF-268 CNS): 20.1 µM
- GI50 (SF-295 CNS): 0.324 µM
- TGI (SF-295 CNS): 2.99 µM
- GI50 (SF-539 CNS): 0.354 µM
- TGI (SF-539 CNS): 2.78 µM
- GI50 (SK-MEL-2 melanoma): 0.603 µM
- TGI (SK-MEL-2 melanoma): 18.9 µM
- GI50 (SK-MEL-28 melanoma): 1.58 µM
- TGI (SK-MEL-28 melanoma): 17.4 µM
- GI50 (SK-MEL-5 melanoma): 0.511 µM
- TGI (SK-MEL-5 melanoma): 11.1 µM
- GI50 (SK-OV-3 ovarian): 0.887 µM
- TGI (SK-OV-3 ovarian): 18.3 µM
- GI50 (SN12C renal): 0.808 µM
- TGI (SN12C renal): 14.4 µM
- GI50 (SNB-19 CNS): 0.477 µM
- TGI (SNB-19 CNS): 14.8 µM
- GI50 (SNB-75 CNS): 0.172 µM
- TGI (SNB-75 CNS): 0.692 µM
- GI50 (SR leukemia): 0.253 µM
- TGI (SR leukemia): > 43 µM
- GI50 (SW-620 colon): 0.374 µM
- TGI (SW-620 colon): 15 µM
- GI50 (T-47D breast): 0.436 µM
- TGI (T-47D breast): 15.6 µM
- GI50 (TK-10 renal): 1.55 µM
- TGI (TK-10 renal): 12.7 µM
- GI50 (U251 CNS): 0.448 µM
- TGI (U251 CNS): 14.4 µM
- GI50 (UACC-257 melanoma): 1.35 µM
- TGI (UACC-257 melanoma): 18.2 µM
- GI50 (UACC-62 melanoma): 0.281 µM
- TGI (UACC-62 melanoma): 8 µM
- GI50 (UO-31 renal): 0.855 µM
- TGI (UO-31 renal): 11.9 µM

SMILES: CC(=O)OC(C)(C)C1O[C@@]23OC1C[C@@H](C)[C@@H]2[C@@]1(C)CC[C@@]24C[C@@]25CC[C@H](OC2OCC(O)C(O)C2O)C(C)(C)[C@@H]5CCC4[C@]1(C)[C@H]3O (some centres undefined)
- TGI (786-0 renal): 18.9 µM
- TGI (A498 renal): 18.2 µM
- TGI (A549 NSCLC): 21.4 µM
- TGI (ACHN renal): 17 µM
- TGI (BT-549 breast): 40.6 µM
- TGI (CAKI-1 renal): 20.4 µM
- TGI (CCRF-CEM leukemia): > 38.3 µM
- TGI (COLO 205 colon): 25.1 µM
- TGI (DU-145 prostate): 15.4 µM
- TGI (EKVX NSCLC): 18.8 µM
- TGI (HCC-2998 colon): 25.7 µM
- TGI (HCT-116 colon): 19.1 µM
- TGI (HCT-15 colon): 10.8 µM
- TGI (HL-60(TB) leukemia): 5.48 µM
- TGI (HOP-62 NSCLC): 37.7 µM
- TGI (HOP-92 NSCLC): 31.6 µM
- TGI (HS 578T breast): 45.6 µM
- TGI (HT29 colon): 24.7 µM
- TGI (IGROV1 ovarian): 29.1 µM
- TGI (K-562 leukemia): > 93.2 µM
- TGI (KM12 colon): 13.8 µM
- TGI (LOX IMVI melanoma): 31.4 µM
- TGI (M14 melanoma): 24.2 µM
- TGI (MALME-3M melanoma): 42.1 µM
- TGI (MCF7 breast): 11.9 µM
- TGI (MDA-MB-231 breast): 14.8 µM
- TGI (MDA-MB-435): 32.3 µM
- TGI (MOLT-4 leukemia): 21.5 µM
- TGI (NCI-H226 lung): 19.5 µM
- TGI (NCI-H23 lung): 15.7 µM
- TGI (NCI-H460 lung): 32.2 µM
- TGI (NCI-H522 lung): 25.3 µM
- TGI (NCI/ADR-RES ovarian): 27.8 µM
- TGI (OVCAR-3 ovarian): 13.4 µM
- TGI (OVCAR-4 ovarian): 23.8 µM
- TGI (OVCAR-5 ovarian): 31.8 µM
- TGI (OVCAR-8 ovarian): 64.8 µM
- TGI (PC-3 prostate): 17.1 µM
- TGI (RPMI-8226 leukemia): 29.1 µM
- TGI (RXF 393 renal): 30.3 µM
- TGI (SF-268 CNS): 41.3 µM
- TGI (SF-295 CNS): 24.7 µM
- TGI (SF-539 CNS): 12 µM
- TGI (SK-MEL-2 melanoma): 39 µM
- TGI (SK-MEL-28 melanoma): 29.8 µM
- TGI (SK-MEL-5 melanoma): 23.3 µM
- TGI (SK-OV-3 ovarian): 28.6 µM
- TGI (SN12C renal): 10.7 µM
- TGI (SNB-19 CNS): 18.6 µM
- TGI (SNB-75 CNS): 46.5 µM
- TGI (SR leukemia): 15.2 µM
- TGI (SW-620 colon): > 100 µM
- TGI (T-47D breast): 79.4 µM
- TGI (TK-10 renal): 24.5 µM
- TGI (U251 CNS): 22.1 µM
- TGI (UACC-257 melanoma): 32.9 µM
- TGI (UACC-62 melanoma): 27.7 µM
- TGI (UO-31 renal): 29.7 µM
